We go through 5 compounds from ChEMBL document CHEMBL1141962, “Angiogenesis inhibitors derived from thalidomide” (2005).

What all share (type): functional
Common to all, as to conditions: Homo sapiens

The test system of assay [1] is HUVEC. Put plainly: Inhibitory activity in HUVEC tube formation assay at 10 uM.
In assay [2] the test system is HUVEC. Put plainly: Inhibitory activity in HUVEC tube formation assay at 30 uM.
For assay [3], the system named is HUVEC. Put plainly: Inhibitory activity in HUVEC tube formation assay at 100 uM.

Regarding `CC(C)c1cccc(C(C)C)c1N1C(=O)c2ccc(O)cc2C1=O`, the inhibition (as a rule, the share of the control response that was lost under treatment) at 10 µM in assay [1] came out at 8%. The compound further came in with an inhibition at 30 µM in assay [2] of 41%. The compound also yielded an inhibition at 100 µM in assay [3] of 59%. For `O=C1CCC(N2C(=O)c3cccc([N+](=O)[O-])c3C2=O)C(=O)N1` (configuration not stated), the inhibition at 100 µM in assay [3] amounted to 32%. On the same count and under the same terms, then `Nc1cccc2c1CN(C1CCC(=O)NC1=O)C2=O` (configuration not stated) [LENALIDOMIDE], with 32%. `Nc1cccc2c1C(=O)N(C1CCC(=O)NC1=O)C2=O` (configuration not stated) [POMALIDOMIDE]: testing at 100 µM in assay [3] gave an inhibition of 21%. On the same count and under the same terms, the value for `O=C1CCC(N2C(=O)c3ccccc3C2=O)C(=O)N1` (configuration not stated) [THALIDOMIDE] was 26%.
